# Source: patent US8227625B2, “4,5,6,7-tetrahydrobenzo[b]thiophene derivatives and their use as sigma receptor ligands” (Laboratorios del Dr. Esteve, S.A., priority 2006, dated 2012)
row,SMILES,melting point [°C]
1,"CN(C/C=C1\CCCc2sccc21)CCc1ccccc1.O=C(O)C(=O)O [Example 8, (E)-N-(2-(6,7-dihydrobenzo[b]thien-4(5H)-ylidene)ethyl)-N-methyl-2-phenylethanamine oxalate]",129 to 130
2,"O=C(O)C(=O)O.O=C1N(c2ccc(F)cc2)CCC12CCN(CCC1CCCc3sccc31)CC2 (stereo not drawn) [Example 95, 2-(4-Fluorophenyl)-8-[2-(4,5,6,7-tetrahydrobenzo[b]thiophen-4-yl)-ethyl]-2,8-diazaspiro[4.5]decan-1-one oxalate]",195 to 199
3,"C(/CN1CCCCC1)=C1/CCCc2sccc21.O=C(O)C(=O)O [Example 10, (E)-1-(2-(6,7-dihydrobenzo[b]thien-4(5H)-ylidene)ethyl)piperidine oxalate]",148 to 150
4,"C(/CN1CCC(c2ccccc2)CC1)=C1/CCCc2sccc21.O=C(O)C(=O)O [Example 6, (E)-1-(2-(6,7-dihydrobenzo[b]thien-4(5H)-ylidene)ethyl)-4-phenylpiperidine oxalate]",160 to 163
5,"CN1CCC2(CCN(CCC3CCCc4sccc43)CC2)C1=O.O=C(O)C(=O)O (stereo not drawn) [Example 65, 2-Methyl-8-[2-(4,5,6,7-tetrahydrobenzo[b]thiophen-4-yl)-ethyl]-2,8-diazaspiro[4.5]decan-1-one oxalate]",140 to 142
6,"O=C(O)C(=O)O.c1ccc2c(c1)CN(CCC1CCCc3sccc31)C2 (stereo not drawn) [Example 22, 2-(2-(4,5,6,7-tetrahydrobenzo[b]thien-4-yl)ethyl)isoindoline oxalate]",203 to 205
7,"Fc1ccccc1C1CCN(CCC2CCCc3sccc32)CC1.O=C(O)C(=O)O (stereo not drawn) [Example 54, 4-(2-fluorophenyl)-1-(2-(4,5,6,7-tetrahydrobenzo[b]thiophen-4-yl)ethyl)piperidine oxalate]",208 to 209
8,"O=C(O)C(=O)O.O=C1N(c2ccccc2)CCC12CCN(CCC1CCCc3sccc31)CC2 (stereo not drawn) [Example 87, 2-phenyl-8-[2-(4,5,6,7-tetrahydrobenzo[b]thiophen-4-yl)-ethyl]-2,8-diazaspiro[4.5]decan-1-one oxalate]",200 to 201
9,"O=C(O)C(=O)O.O=C1N(Cc2ccccc2)CCC12CCN(CCC1CCCc3sccc31)CC2 (stereo not drawn) [Example 83, 2-benzyl-8-[2-(4,5,6,7-tetrahydrobenzo[b]thiophen-4-yl)-ethyl]-2,8-diazaspiro[4.5]decan-1-one oxalate]",170 to 171
10,"C(/CN1CCOCC1)=C1/CCCc2sccc21.O=C(O)C(=O)O [Example 14, (E)-4-(2-(6,7-dihydrobenzo[b]thien-4(5H)-ylidene)ethyl)morpholine oxalate]",171 to 174
11,"COc1ccccc1C1CCN(CCC2CCCc3sccc32)CC1.O=C(O)C(=O)O (stereo not drawn) [Example 36, 4-(2-methoxyphenyl)-1-(2-(4,5,6,7-tetrahydrobenzo[b]thiophen-4-yl)ethyl)piperidine oxalate]",160 to 162
12,"Cc1ccccc1C1CCN(CCC2CCCc3sccc32)CC1.O=C(O)C(=O)O (stereo not drawn) [Example 28, 1-(2-(4,5,6,7-tetrahydrobenzo[b]thiophen-4-yl)ethyl)-4-o-tolylpiperidine oxalate]",188 to 190
13,"O=C(O)C(=O)O.c1ccc2c(c1)ccn2C1CCN(CCC2CCCc3sccc32)CC1 (stereo not drawn) [Example 79, 1-(1-(2-(4,5,6,7-tetrahydrobenzo[b]thiophen-4-yl)ethyl)piperidin-4-yl)-1H-indole oxalate]",162 to 164
14,"Clc1cc(Cl)c2c(c1)CN(CCC1CCCc3sccc31)CC2.O=C(O)C(=O)O (stereo not drawn) [Example 77, 5,7-dichloro-2-(2-(4,5,6,7-tetrahydrobenzo[b]thiophen-4-yl)ethyl)-1,2,3,4-tetrahydroisoquinoline oxalate]",182 to 184
15,"O=C(O)C(=O)O.c1ccc2c(C3CCN(CCC4CCCc5sccc54)CC3)cccc2c1 (stereo not drawn) [Example 32, 4-(naphthalen-1-yl)-1-(2-(4,5,6,7-tetrahydrobenzo[b]thiophen-4-yl)ethyl)piperidine oxalate]",197 to 198
